Tests used:
Type in all cases: in vivo
[1] = test system: sicklepod (Cassia obtusifolia, CASOB); test: Post-emerge test, greenhouse herbicide activity screening; details: rating scale 0-100 (0 no damage, 100 complete death), 14 days after application
Procedure, shortened: (§1)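 Compounds in acetone were track-sprayed at 15-1000 g ai/ha (187 l/ha) on sandy loam pots: pre-emerge one day after seeding, post-emerge at 2-3 leaf stage with 0.25% v/v non-ionic surfactant. Phytotoxicity was rated 14 days later on a 0 (no damage) to 100 (complete death) scale.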

[2] = test system: ivyleaf morningglory (Ipomoea hederacea, IPOHE); test: as above; details: rating scale 0-100 (0 no damage, 100 complete death), 14 days after application
Procedure, shortened: as §1

[3] = test system: redroot pigweed (Amaranthus retroflexus, AMARE); test: as above; details: rating scale 0-100 (0 no damage, 100 complete death), 14 days after application
Procedure, shortened: as §1

[4] = test system: barnyardgrass (Echinochloa crus-galli, ECHCG); test: as above; details: rating scale 0-100 (0 no damage, 100 complete death), 14 days after application
Procedure, shortened: as §1

[5] = test system: johnsongrass (Sorghum halepense, SORHA); test: as above; details: rating scale 0-100 (0 no damage, 100 complete death), 14 days after application
Procedure, shortened: as §1

[6] = test system: lambsquarters (Chenopodium album, CHEAL); test: as above; details: rating scale 0-100 (0 no damage, 100 complete death), 14 days after application
Procedure, shortened: as §1

[7] = test system: large crabgrass (Digitaria sanguinalis, DIGSA); test: as above; details: rating scale 0-100 (0 no damage, 100 complete death), 14 days after application
Procedure, shortened: as §1

[8] = test system: green foxtail (Setaria viridis, SETVI); test: as above; details: rating scale 0-100 (0 no damage, 100 complete death), 14 days after application
Procedure, shortened: as §1

[9] = test system: velvetleaf (Abutilon theophrasti, ABUTH); test: as above; details: rating scale 0-100 (0 no damage, 100 complete death), 14 days after application
Procedure, shortened: as §1

[10] = test system: field corn (Zea mays L., var. Dekalb 535, CORN); test: Post-emerge test, crop safety; details: rating scale 0-100 (0 no damage, 100 complete death), 14 days after application
Procedure, shortened: (§2)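 Plants grown in 10 cm pots of sandy loam mix received acetone-dissolved compounds through a moving flat-fan nozzle. Doses ranged from 15 to 1000 g ai/ha. Pre-emerge pots were seeded one day earlier, post-emerge pots 8–21 days earlier. Fourteen days on, each pot was graded 0–100 for damage.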

[11] = test system: upland rice (Oryza sp., var. Tebonnet, RICE); test: Post-emerge test, crop safety; details: rating scale 0-100 (0 no damage, 100 complete death), 14 days after application
Procedure, shortened: as §2

[12] = test system: field corn (Zea mays L., var. Dekalb 535, CORN); test: Pre-emerge test, crop safety; details: rating scale 0-100, 14 days after application
Procedure, shortened: (§3)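 Applied at 15–1000 g ai/ha from acetone in 187 l/ha spray volume. Post-emergence applications included 0.25% v/v non-ionic surfactant and reached plants sown 8–21 days before. Pre-emergence applications were incorporated by surface watering. Efficacy or crop damage was rated on a 0–100 scale after 14 days.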

[13] = test system: upland rice (Oryza sp., var. Tebonnet, RICE); test: Pre-emerge test, crop safety; details: rating scale 0-100, 14 days after application
Procedure, shortened: as §3

[14] = test system: redroot pigweed (Amaranthus retroflexus, AMARE); test: Pre-emerge test, greenhouse herbicide activity screening; details: rating scale 0-100, 14 days after application
Procedure, shortened: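 Compounds in acetone were track-sprayed at 187 l/ha, 15–1000 g ai/ha, onto sandy loam pots. Pre-emerge seeds were sown one day before spraying, with surface watering afterwards. Post-emerge plants were at the 2–3 leaf stage and sprayed with 0.25% v/v non-ionic surfactant. Injury was rated 0–100 at 14 days.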

[15] = test system: sicklepod (Cassia obtusifolia, CASOB); test: as above; details: rating scale 0-100, 14 days after application
Procedure, shortened: (§4)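 Rating: 0–100 visual injury, 14 DAA. Application: acetone, 187 l/ha, 15–1000 g ai/ha, flat-fan track sprayer with nozzle 40–45 cm above soil or canopy. Post-emerge runs used 0.25% v/v surfactant on 2–3 leaf plants.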

[16] = test system: ivyleaf morningglory (Ipomoea hederacea, IPOHE); test: as above; details: rating scale 0-100, 14 days after application
Procedure, shortened: as §4

[17] = test system: barnyardgrass (Echinochloa crus-galli, ECHCG); test: as above; details: rating scale 0-100, 14 days after application
Procedure, shortened: as §4

[18] = test system: johnsongrass (Sorghum halepense, SORHA); test: as above; details: rating scale 0-100, 14 days after application
Procedure, shortened: as §4

[19] = test system: common ragweed (Ambrosia artemisizfolia L., AMBEL); test: as above; details: rating scale 0-100, 14 days after application
Procedure, shortened: as §4

[20] = test system: lambsquarters (Chenopodium album, CHEAL); test: as above; details: rating scale 0-100, 14 days after application
Procedure, shortened: as §4

[21] = test system: large crabgrass (Digitaria sanguinalis, DIGSA); test: as above; details: rating scale 0-100, 14 days after application
Procedure, shortened: as §4

[22] = test system: green foxtail (Setaria viridis, SETVI); test: as above; details: rating scale 0-100, 14 days after application
Procedure, shortened: as §4

[23] = test system: velvetleaf (Abutilon theophrasti, ABUTH); test: as above; details: rating scale 0-100, 14 days after application
Procedure, shortened: as §4

CCCCCOC(=O)C(Cl)Cc1c(OC)c(Cl)cc(F)c1-n1c(=O)cc(C(F)(F)F)n(C)c1=O (single isomer, unassigned) [14-10]
Post-emerge Herbicidal Activity, phytotoxicity rating CASOB ([1]; Rate 63 g ai/ha): 80
Post-emerge Herbicidal Activity, phytotoxicity rating CASOB ([1]; Rate 250 g ai/ha): 90
Post-emerge Herbicidal Activity, phytotoxicity rating IPOHE ([2]; Rate 63 g ai/ha): 70
Post-emerge Herbicidal Activity, phytotoxicity rating IPOHE ([2]; Rate 250 g ai/ha): 80
Post-emerge Herbicidal Activity, phytotoxicity rating AMARE ([3]; Rate 63 g ai/ha): 90
Post-emerge Herbicidal Activity, phytotoxicity rating AMARE ([3]; Rate 250 g ai/ha): 100
Post-emerge Herbicidal Activity, phytotoxicity rating ECHCG ([4]; Rate 63 g ai/ha): 95
Post-emerge Herbicidal Activity, phytotoxicity rating ECHCG ([4]; Rate 250 g ai/ha): 100
Post-emerge Herbicidal Activity, phytotoxicity rating SORHA ([5]; Rate 63 g ai/ha): 20
Post-emerge Herbicidal Activity, phytotoxicity rating SORHA ([5]; Rate 250 g ai/ha): 50
Post-emerge Herbicidal Activity, phytotoxicity rating CHEAL ([6]; Rate 63 g ai/ha): 90
Post-emerge Herbicidal Activity, phytotoxicity rating CHEAL ([6]; Rate 250 g ai/ha): 100
Post-emerge Herbicidal Activity, phytotoxicity rating DIGSA ([7]; Rate 63 g ai/ha): 10
Post-emerge Herbicidal Activity, phytotoxicity rating DIGSA ([7]; Rate 250 g ai/ha): 100
Post-emerge Herbicidal Activity, phytotoxicity rating SETVI ([8]; Rate 63 g ai/ha): 50
Post-emerge Herbicidal Activity, phytotoxicity rating SETVI ([8]; Rate 250 g ai/ha): 90
Post-emerge Herbicidal Activity, phytotoxicity rating ABUTH ([9]; Rate 63 g ai/ha): 80
Post-emerge Herbicidal Activity, phytotoxicity rating ABUTH ([9]; Rate 250 g ai/ha): 100
Post-emerge phytotoxicity rating CORN (crop damage) ([10]; Rate 63 g ai/ha): 20
Post-emerge phytotoxicity rating CORN (crop damage) ([10]; Rate 250 g ai/ha): 60
Post-emerge phytotoxicity rating RICE (crop damage) ([11]; Rate 63 g ai/ha): 0
Post-emerge phytotoxicity rating RICE (crop damage) ([11]; Rate 250 g ai/ha): 20
Pre-emerge phytotoxicity rating, crop damage CORN ([12]; 63 g ai/ha): 0
Pre-emerge phytotoxicity rating, crop damage CORN ([12]; 250 g ai/ha): 40
Pre-emerge phytotoxicity rating, crop damage RICE ([13]; 63 g ai/ha): 20
Pre-emerge phytotoxicity rating, crop damage RICE ([13]; 250 g ai/ha): 30
Pre-emerge herbicidal activity, phytotoxicity rating AMARE ([14]; 63 g ai/ha): 100
Pre-emerge herbicidal activity, phytotoxicity rating AMARE ([14]; 250 g ai/ha): 100
Pre-emerge herbicidal activity, phytotoxicity rating CASOB ([15]; 63 g ai/ha): 0
Pre-emerge herbicidal activity, phytotoxicity rating CASOB ([15]; 250 g ai/ha): 0
Pre-emerge herbicidal activity, phytotoxicity rating IPOHE ([16]; 63 g ai/ha): 0
Pre-emerge herbicidal activity, phytotoxicity rating IPOHE ([16]; 250 g ai/ha): 70
Pre-emerge herbicidal activity, phytotoxicity rating ECHCG ([17]; 63 g ai/ha): 0
Pre-emerge herbicidal activity, phytotoxicity rating ECHCG ([17]; 250 g ai/ha): 0
Pre-emerge herbicidal activity, phytotoxicity rating SORHA ([18]; 63 g ai/ha): 0
Pre-emerge herbicidal activity, phytotoxicity rating SORHA ([18]; 250 g ai/ha): 30
Pre-emerge herbicidal activity, phytotoxicity rating AMBEL ([19]; 63 g ai/ha): 50
Pre-emerge herbicidal activity, phytotoxicity rating AMBEL ([19]; 250 g ai/ha): 100
Pre-emerge herbicidal activity, phytotoxicity rating CHEAL ([20]; 63 g ai/ha): 0
Pre-emerge herbicidal activity, phytotoxicity rating CHEAL ([20]; 250 g ai/ha): 100
Pre-emerge herbicidal activity, phytotoxicity rating DIGSA ([21]; 63 g ai/ha): 0
Pre-emerge herbicidal activity, phytotoxicity rating DIGSA ([21]; 250 g ai/ha): 90
Pre-emerge herbicidal activity, phytotoxicity rating SETVI ([22]; 63 g ai/ha): 0
Pre-emerge herbicidal activity, phytotoxicity rating SETVI ([22]; 250 g ai/ha): 0
Pre-emerge herbicidal activity, phytotoxicity rating ABUTH ([23]; 63 g ai/ha): 0
Pre-emerge herbicidal activity, phytotoxicity rating ABUTH ([23]; 250 g ai/ha): 90

From patent publication US6355799B1, “Substituted benzene compounds, process for their preparation, and herbicidal and defoliant compositions containing them” (ISK Americas Incorporated, priority 1997, dated 2002)
